The record followed here is ChEMBL document CHEMBL1133215, “Natural and synthetic analogues of actinomycin D as Grb2-SH2 domain blockers” (Bioorg Med Chem Lett, 2000).

pIC50: −log10 of the molar value. Calls of active or inactive are those of the source. No cut-off for these calls is given here.

In experiment [1] the target is Growth factor receptor-bound protein 2 (Mus musculus) (UniProt Q60631). The experiment is described as follows: In vitro inhibitory activity against Shc/Grb2 interactions in B104-1-1 cells at 2 uM. In kind it is functional, cell-based.
Experiment [2] has the same target. In words: In vitro inhibitory activity against Shc/Grb2 interactions in B104-1-1 cells at 5 uM. The class given is functional, cell-based.
Experiment [3] relates to B104. The experiment is described as follows: Growth inhibitory activity was tested against B104-1-1 cells. In kind it is functional, Mus musculus.
Experiment [4] addresses Growth factor receptor-bound protein 2 (Mus musculus, UniProt Q60631). In words: In vitro binding assay of Shc-derived phosphopeptide to Growth factor receptor bound protein 2 SH2 in B104-1-1 cells was determined. The class given is cell-based.
Experiment [5] has as its system B104. In words: Growth inhibitory activity against B104-1-1 cells; Not active. In kind it is functional, cell-based. The conditions noted are these: Mus musculus.

Chain of Growth factor receptor-bound protein 2 (Q60631 whole entry): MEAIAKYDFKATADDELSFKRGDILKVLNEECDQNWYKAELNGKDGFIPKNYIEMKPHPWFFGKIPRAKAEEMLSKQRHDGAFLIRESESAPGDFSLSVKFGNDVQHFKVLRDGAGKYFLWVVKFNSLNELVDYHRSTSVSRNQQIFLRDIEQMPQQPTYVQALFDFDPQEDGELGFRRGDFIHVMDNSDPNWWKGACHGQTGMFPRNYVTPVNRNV
Chain of Growth factor receptor-bound protein 2 (Mus musculus) (Q60631 whole entry): as above

One may read the inhibition as the change of the read-out against control, counted positive when it falls. In general, GI50 refers to the concentration at which growth is held to half of that of the control. What is called pIC50 is the negative decadic logarithm of the IC50, by convention in mol/L. As to `CC[C@@H](C)[C@H]1NC(=O)[C@@H](NC(=O)c2c3nc4c(C(=O)N[C@@H]5C(=O)N[C@H]([C@H](C)CC)C(=O)N6CCC[C@H]6C(=O)N(C)CC(=O)N[C@@H](C(C)C)C(=O)O[C@@H]5C)ccc(C)c4oc-3c(C)c(=O)c2N)[C@@H](C)OC(=O)[C@H](C(C)C)NC(=O)CN(C)C(=O)[C@@H]2CCCN2C1=O`, the inhibition in experiment [1] came to 30.9%; in experiment [2], 40.8%. Further, in the experiment with B104 [3], the GI50 is 0.8 nM. The molecule also showed a pIC50 in experiment [4] of 5.23.
Consider `Cc1c2oc3c(C)ccc(C(=O)N[C@@H]4C(=O)N[C@H](Cc5ccc(O)cc5)C(=O)N5CCC[C@H]5C(=O)N(C)CC(=O)N[C@@H](C(C)C)C(=O)O[C@@H]4C)c3nc-2c(C(=O)N[C@@H]2C(=O)N[C@H](Cc3ccc(O)cc3)C(=O)N3CCC[C@H]3C(=O)N(C)CC(=O)N[C@@H](C(C)C)C(=O)O[C@@H]2C)c(N)c1=O` (stereo in doubt; 1), for which the inhibition in experiment [1] was 84.3%; in experiment [2], 90.7%. Moreover, in the experiment on B104 [5], the GI50 result was “inactive”.
`Cc1c2oc3c(C)ccc(C(=O)N[C@@H]4C(=O)N[C@H](Cc5ccccc5)C(=O)N5CCC[C@H]5C(=O)N(C)CC(=O)N[C@@H](C(C)C)C(=O)O[C@@H]4C)c3nc-2c(C(=O)N[C@@H]2C(=O)N[C@H](Cc3ccccc3)C(=O)N3CCC[C@H]3C(=O)N(C)CC(=O)N[C@@H](C(C)C)C(=O)O[C@@H]2C)c(N)c1=O`: the inhibition in experiment [1] came out at 73.6%; in experiment [2], 82.8%. This molecule also yielded a concentration for 50% growth inhibition (GI50) with B104 [3] of 8 nM. This molecule also had a pIC50 in experiment [4] of 5.92.
With `Cc1c2oc3c(C)ccc(C(=O)N[C@@H]4C(=O)N[C@H](C(C)C)C(=O)N5CCC[C@H]5C(=O)N(C)CC(=O)N[C@H](Cc5ccc(O)cc5)C(=O)O[C@@H]4C)c3nc-2c(C(=O)N[C@@H]2C(=O)N[C@H](C(C)C)C(=O)N3CCC[C@H]3C(=O)N(C)CC(=O)N[C@H](Cc3ccc(O)cc3)C(=O)O[C@@H]2C)c(N)c1=O` (stereo in doubt; 5), the results for the inhibition in experiment [1] and in experiment [2] were 3.5% and 27.4%, respectively. In addition, the GI50 result in the experiment with B104 [5] was “inactive”.
Turning to `Cc1c2oc3c(C)ccc(C(=O)N[C@@H]4C(=O)N[C@H](C(C)C)C(=O)N5CCC[C@H]5C(=O)N(C)CC(=O)N[C@H](C(C)C)C(=O)O[C@@H]4C)c3nc-2c(C(=O)N[C@@H]2C(=O)N[C@H](C(C)C)C(=O)N3CCC[C@H]3C(=O)N(C)CC(=O)N[C@H](C(C)C)C(=O)O[C@@H]2C)c(N)c1=O`, the results for the inhibition in experiment [1] and in experiment [2] were 72% and 86%, respectively. This molecule also showed a GI50 in the experiment with B104 [3] of 3 nM. The molecule also had a pIC50 in experiment [4] of 6.00.
In the same order, the values of `Cc1c2oc3c(C)ccc(C(=O)N[C@@H]4C(=O)N[C@H](C(C)C)C(=O)N5CCC[C@H]5C(=O)N(C)CC(=O)N[C@H](Cc5ccccc5)C(=O)O[C@@H]4C)c3nc-2c(C(=O)N[C@@H]2C(=O)N[C@H](C(C)C)C(=O)N3CCC[C@H]3C(=O)N(C)CC(=O)N[C@H](Cc3ccccc3)C(=O)O[C@@H]2C)c(N)c1=O` are 75.1%, 87.7%, 3 nM and 6.05.
In the same order, the values of `CC[C@@H](C)[C@H]1NC(=O)CN(C)C(=O)[C@@H]2CCCN2C(=O)[C@@H]([C@H](C)CC)NC(=O)[C@@H](NC(=O)c2c3nc4c(C(=O)N[C@@H]5C(=O)N[C@H]([C@H](C)CC)C(=O)N6CCC[C@H]6C(=O)N(C)CC(=O)N[C@H]([C@H](C)CC)C(=O)O[C@@H]5C)ccc(C)c4oc-3c(C)c(=O)c2N)[C@@H](C)OC1=O` are 15.1%, 25.3%, 1 nM and 5.12.
